From US4438036A, “β-Lactam antibiotics their preparation and their use” (priority 1980, dated 1984)
In brackets after ≈: the same amount, converted by molar mass. Where two headings read alike, the source gives them in different places.

What was measured:
Experiment in all cases: Antibacterial effectiveness in a standard microtitre test (MIC)
Type in all cases: cell-based
Streptococcus faecalis I = details: Enterococcus faecalis
Source text: (§1) Antibacterial effectiveness of the compounds of the Examples in a standard microtitre test.

[1] = tested on: Streptococcus pneumoniae CN33
Source text: as §1

Escherichia coli 0111 = tested on: Escherichia coli 0111
Source text: as §1

Proteus morganii I580 = details: Morganella morganii
Source text: as §1

[2] = tested on: Salmonella typhimurium CR10; details: Salmonella enterica
Source text: as §1

Bacillus subtilis A = tested on: Bacillus subtilis A
Source text: as §1

Proteus rettgeri WM16 = details: Providencia rettgeri
Source text: as §1

Enterobacter cloacae N1 = tested on: Enterobacter cloacae N1
Source text: as §1

Proteus vulgaris W091 = tested on: Proteus vulgaris W091
Source text: as §1

Pseudomonas aeruginosa A = tested on: Pseudomonas aeruginosa A
Source text: as §1

Klebsiella aerogenes A = tested on: Klebsiella aerogenes A
Source text: as §1

Citrobacter freundii E8 = tested on: Citrobacter freundii E8
Source text: as §1

Proteus mirabilis C977 = tested on: Proteus mirabilis C977
Source text: as §1

[3] = tested on: Staphylococcus aureus Russell
Source text: as §1

[4] = tested on: Staphylococcus aureus Oxford
Source text: as §1

Serratia marcescens US20 = tested on: Serratia marcescens US20
Source text: as §1

Shigella sonnei MB 11967 = details: MB11967
Source text: as §1

Escherichia coli ESS = tested on: Escherichia coli ESS
Source text: as §1

[5] = tested on: Streptococcus pyogenes CN10
Source text: as §1

[6] = tested on: Staphylococcus aureus 1517
Source text: as §1

Escherichia coli JT 39 = details: JT39
Source text: as §1

[7] = tested on: Klebsiella aerogenes Ba 95 R+
Source text: as §1

Escherichia coli JT 4 R+ = tested on: Escherichia coli JT 4 R+
Source text: as §1

[8] = Streptococcus faecalis I, read-out: MIC
[9] = Proteus morganii I580, read-out: MIC
[10] = Salmonella typhimurium CR10, read-out: MIC
[11] = Bacillus subtilis A, read-out: MIC
[12] = Proteus rettgeri WM16, read-out: MIC
[13] = Pseudomonas aeruginosa A, read-out: MIC
[14] = Staphylococcus aureus Oxford, read-out: MIC

Row | SMILES | MIC (Streptococcus faecalis I) [µg/mL] | MIC [1] [µg/mL] | MIC (Escherichia coli 0111) [µg/mL] | MIC (Proteus morganii I580; I580) [µg/mL] | MIC ([2]; TYPHIMURIUM) [µg/mL] | MIC (Bacillus subtilis A; Bacillus subtilis) [µg/mL] | MIC (Proteus rettgeri WM16; WM16) [µg/mL] | MIC (Enterobacter cloacae N1) [µg/mL] | MIC (Proteus vulgaris W091) [µg/mL] | MIC (Pseudomonas aeruginosa A; Pseudomonas aeruginosa) [µg/mL] | MIC (Klebsiella aerogenes A; Klebsiella aerogenes) [µg/mL] | MIC (Citrobacter freundii E8) [µg/mL] | MIC (Proteus mirabilis C977) [µg/mL] | MIC ([3]; Staphylococcus aureus) [µg/mL] | MIC ([4]; Staphylococcus aureus) [µg/mL] | MIC (Serratia marcescens US20) [µg/mL] | MIC (Shigella sonnei MB 11967) [µg/mL] | MIC (Escherichia coli ESS; Escherichia coli) [µg/mL] | MIC [5] [µg/mL] | MIC (Escherichia coli JT 39; Escherichia coli) [µg/mL] | further results
1 | CC(=O)N/C=C/SC1=C(C(=O)[O-])N2C(=O)[C@H]([C@@H](C)OC=O)[C@H]2C1.[Na+] [Example 6, Sodium (5R,6S)-3-(E-2-acetamidoethenylthio)-6-[(R)-1-formyloxyethyl]-7-oxo-1-azabicyclo[3.2.0]hept-2-ene-2-carboxylate] | 12.5 | 0.1 | 1.6 | 6.2 | 3.1 | 0.8 | 3.1 | 6.2 | 3.1 | 100 | 1.6 | 1.6 | 6.2 | 0.4 | 0.8 | 3.1 | 1.6 | 0.4 | 0.2 | 0.8 | MIC [6]: 12.5 µg/mL
2 | CC(=O)N/C=C/SC1=C(C(=O)[O-])N2C(=O)[C@H]([C@@H](C)O)[C@H]2C1.[Na+] [Example 5, Sodium (5R,6S)-3-(E-2-acetamidoethenylthio)-6-[(R)-1-hydroxyethyl]-7-oxo-1-azabicyclo[3.2.0]hept-2-ene-2-carboxylate] | 8 | 0.2 | ≤ 0.5 | 2 | 0.5 | 0.2 | 2 | 1 | 2 | 125 | 0.5 | 0.5 | 2 | ≤ 0.5 | 0.2 | 2 | ≤ 1 | > 0.2 | 0.5 | 0.2 | –
3 | CC(=O)NCCSC1=C(C(=O)O)N2C(=O)[C@H]([C@@H](C)N)[C@H]2C1 [Example 8, (5R,6R)-3-(2-Acetamidoethylthio)-6-[(R)-1-aminoethyl]-7-oxo-1-azabicyclo[3.2.0]hept-2-ene-2-carboxylic acid] | – | – | 16 (≈ 51.1 µM) | – | – | – | – | – | – | – | – | – | – | – | – | – | 8 (≈ 25.5 µM) | – | – | – | MIC (Streptococcus faecalis I; [8]): 16 µg/mL (≈ 51.1 µM); MIC ([1]; read-out: MIC): 2 µg/mL (≈ 6.38 µM); MIC (Proteus morganii I580; [9]): 16 µg/mL (≈ 51.1 µM); MIC [2, 10]: 8 µg/mL (≈ 25.5 µM); MIC (Bacillus subtilis A; [11]): 4 µg/mL (≈ 12.8 µM); MIC (Proteus rettgeri WM16; [12]): 16 µg/mL (≈ 51.1 µM); MIC (Enterobacter cloacae N1; read-out: MIC): 16 µg/mL (≈ 51.1 µM); MIC (Proteus vulgaris W091; read-out: MIC): 16 µg/mL (≈ 51.1 µM); MIC (Pseudomonas aeruginosa A; [13]): 62 µg/mL (≈ 198 µM); MIC (Klebsiella aerogenes A; Klebsiella aerogenes A, read-out: MIC): 8 µg/mL (≈ 25.5 µM); MIC (Citrobacter freundii E8; read-out: MIC): 16 µg/mL (≈ 51.1 µM); MIC (Proteus mirabilis C977; read-out: MIC): 31 µg/mL (≈ 98.9 µM); MIC ([3]; Staphylococcus aureus Russell, read-out: MIC): 2 µg/mL (≈ 6.38 µM); MIC [4, 14]: 4 µg/mL (≈ 12.8 µM); MIC (Serratia marcescens US20; read-out: MIC): 16 µg/mL (≈ 51.1 µM); MIC (Escherichia coli ESS; Escherichia coli ESS, read-out: MIC): 4 µg/mL (≈ 12.8 µM); MIC ([5]; read-out: MIC): 2 µg/mL (≈ 6.38 µM); MIC ([6]; read-out: MIC): 31 µg/mL (≈ 98.9 µM); MIC (Escherichia coli JT 39; Escherichia coli JT 39, read-out: MIC): 8 µg/mL (≈ 25.5 µM)
4 | CC(=O)N/C=C/SC1=C(C(=O)O)N2C(=O)[C@H]([C@@H](C)N)[C@H]2C1 [Example 2, (5R,6R)-3-[E-2-acetamidoethenylthio]-6-[(R)-1-aminoethyl]-7-oxo-1-azabicyclo[3.2.0]hept-2-ene-2-carboxylic acid] | – | – | 0.5 (≈ 1.61 µM) | – | – | – | – | – | – | – | 0.5 (≈ 1.61 µM) | – | – | – | – | – | 1 (≈ 3.21 µM) | 0.2 (≈ 0.642 µM) | – | 0.5 (≈ 1.61 µM) | MIC (Streptococcus faecalis I; [8]): 4 µg/mL (≈ 12.8 µM); MIC (Proteus morganii I580; [9]): 8 µg/mL (≈ 25.7 µM); MIC [2, 10]: 1 µg/mL (≈ 3.21 µM); MIC (Bacillus subtilis A; [11]): 0.2 µg/mL (≈ 0.642 µM); MIC [7]: 2 µg/mL (≈ 6.42 µM); MIC (Proteus rettgeri WM16; [12]): 4 µg/mL (≈ 12.8 µM); MIC (Enterobacter cloacae N1; read-out: MIC): 2 µg/mL (≈ 6.42 µM); MIC (Proteus vulgaris W091; read-out: MIC): 4 µg/mL (≈ 12.8 µM); MIC (Pseudomonas aeruginosa A; [13]): 62 µg/mL (≈ 199 µM); MIC (Citrobacter freundii E8; read-out: MIC): 2 µg/mL (≈ 6.42 µM); MIC (Proteus mirabilis C977; read-out: MIC): 4 µg/mL (≈ 12.8 µM); MIC [4, 14]: 0.5 µg/mL (≈ 1.61 µM); MIC (Serratia marcescens US20; read-out: MIC): 2 µg/mL (≈ 6.42 µM); MIC (Escherichia coli JT 4 R+): 2 µg/mL (≈ 6.42 µM); MIC ([6]; read-out: MIC): 8 µg/mL (≈ 25.7 µM)
